According to US12364786B2, “Polymer particles” (Terumo Corporation, priority 2016, dated 2025):

Assay: In vitro elution of pharmaceutical agents from particles (Sotax USP 4 dissolution apparatus, HPLC)
Assay type: physicochemical
Method: For in vitro elution testing, drug was loaded on 1 mL samples of microspheres of approximately 400±100 micron diameter. Microsphere aliquots were loaded with 37.5 mg of doxorubicin in water or 50 mg of irinotecan in citrate buffer. Samples were incubated for 18 hours. Drug was eluted from the samples in a Sotax USP 4 dissolution apparatus. Samples were taken at incremental time intervals and analyzed by high performance liquid chromatography. Peak area was recorded (FIG. 4). Percent and concentration of drug eluted were calculated for each time interval.

[1] = 1 mL microsphere sample (approximately 400±100 micron diameter) loaded with 37.5 mg doxorubicin in water
[2] = 1 mL microsphere sample (approximately 400±100 micron diameter) loaded with 50 mg irinotecan in citrate buffer

Row | Compound | amount of drug eluted over the first day [1] | percent of drug eluted over the first day [1] | amount of drug eluted over the first day [2] | percent of drug eluted over the first day [2]
1 | COc1cccc2c1C(=O)c1c(O)c3c(c(O)c1C2=O)C[C@@](O)(C(=O)CO)C[C@@H]3O[C@H]1C[C@H](N)[C@H](O)[C@H](C)O1 [doxorubicin] | 24.5 mg | 65% | – | –
2 | CCc1c2c(nc3ccc(OC(=O)N4CCC(N5CCCCC5)CC4)cc13)-c1cc3c(c(=O)n1C2)COC(=O)[C@]3(O)CC [irinotecan] | – | – | over 45 mg | 95%
